According to US9289471B2, “Product and process for liquefaction of mucus or sputum” (National Jewish Health, priority 2002, dated 2016):

Experiment: Glycoprotein content of sputum aqueous and gel phases by PAS staining
Design: species or system human
Details: 10 or 30 μM Trx with reducing system, 20 min (FIG. 5)
Description: Extraction of soluble glycoproteins from sputum was performed according to methodology outlined by Davies et al. (Davies and Carlstedt, Methods Mol Biol 125:3-13, 2000). 275 μl of CF sputum was treated for 20 minutes at 37° C. with 25 μl of H2O alone or H2O containing Trx (10 or 30 μM)+NADPH (2 mM) and TR (0.1 μM). After treatment, 100 μl of H2O containing 1 mM disopropylflurophosphate and 10 μg ml aprotinin, was added to each sample, followed by 15 minute centrifugation at 22,000 g at 4° C. The resulting supernatant (aqueous phase) of each sample was transferred to a new microcentrifuge tube and stored at −20° C. […]
The glycoprotein content of aqueous and gel phase samples were evaluated by staining with periodic acid Schiff reagent (PAS) according to methodology outlined by Thornton et al. (Thornton et al., Methods Mol Biol 125:77-85, 2000). […]
Disulfide bonds on mucin glycoprotein polymers are potential targets for reduction by Trx. […] After treatment, the resulting soluble and insoluble phases of each sample were separated and analyzed for glycoprotein content by periodic acid/Schiff reagent (PAS) staining Specifically, fractions were loaded and electrophoresed in a 1% agarose (w/v) gel, transferred to PVDF membrane, and stained with periodic acid/Schiff reagent as described in materials and methods. […]

Trx: Lyophilized recombinant E. coli Trx from Promega; protein disulfide reductase, used with its reducing system (TR + NADPH)
amount of PAS-reactive glycoproteins in soluble and gel phases versus diluent: greater amounts of PAS-reactive glycoproteins
electrophoretic mobility of glycoforms versus diluent-treated samples: greater electrophoretic mobility
